# Assay results as given in US20130184270A1, “SUBSTITUTED 2,3-DIHYDROIMIDAZO[1,2-C]QUINAZOLINE-CONTAINING COMBINATIONS” (priority 2010, published 2013).
# Like-named read-outs stand apart in the source and are kept apart here.
# Assays:
# [1] = system: Lu7187 primary human tumor (NSCLC); settings: for sensitivity of the model / T/C / animals with disease progression: Lu7187; for animals with disease progression: respective monotherapy groups
# Procedure: (§1) The in vivo combination effects were evaluated in tumor xenograft models in nude mice with either established human tumor cell lines or patient-derived primary tumor models at the MTD and sub-MTD dosages.
# Lu7187 primary human tumor was derived from a patient with NSCLC and was xenografted in nude mice. The tumor was propagated in vivo and tumor tissue from one in vivo passage was used for s.c. implantation in the inguinal region of male nude mice. Treatment was started when the tumors were approximately 0.1 cm^3 in size. Treatment was continued until progression of the tumors. Tumor diameters and body weight were monitored t weekly. cA* was dosed at 14 mg/kg, Q2D×10 from day 7 to day 25 (group C, H and I), or 10 mg/kg, BID×1 weekly on day 7, 14, 21 and 28. cB was dosed at either 12.5 mg/kg (group D, F and H), QD, or 25 mg/kg (group E, G and I), QD from day 7 to day 35.
# [2] = system: Lu7343 primary human tumor (NSCLC); experiment: patient-derived NSCLC xenograft model, cA plus paclitaxel (text: Lu7187; FIG. 5: Lu7343); type: in vivo, nude mice
# Procedure: as §1
# The synergistic combination of cA* and palitaxel was also confirmed in a patient-derived NSCLC xenograft model—Lu7187.
# FIG. 5: Dose-dependent tumor growth inhibition in Lu7343 primary human xenograft NSCLC model. Lu7343 primary human tumor was derived from a patient with NSCLC and was xenografted in nude mice. The tumor was propagated in vivo and tumor tissue from one in vivo passage was used for s.c. implantation in the inguinal region of male nude mice. Treatment was started when the tumors were approximately 0.1 cm^3 in size. Treatment was continued until progression of the tumors. Tumor diameters and body weight were monitored t weekly. cA* was dosed at 10 mg/kg, BIDx1 weekly on day 15, 22, and 29. paclitaxel was dosed at either 15 mg/kg, or 25 mg/kg, once a week on day 14, 21 and day 28.
# [3] = system: CRC SW620 Tumor Cell Line; experiment: 72-hour cell proliferation assay (Cell Titer Glo), combination index; type: cell-based; settings: Homo sapiens, SW-620; SW620, single agent, 90% inhibition not reached
# Procedure: The effects of combinations of the present invention were evaluated using combination index isobologram analysis for in vitro assessment. The efficacy parameters were the effects in a 72-hour cell proliferation assay or in a 48-hour caspase 3/7 activation assay. Briefly, cells were plated in 384-well plate with 25 μL medium. […] Experiments were conducted in triplicates. The mapping EC50/IC50 and EC90/IC90 values were calculated using Analyze5 computer program. The corresponding component concentrations of cA and BB (either cB, or Lapatinib, or paclitaxel (as component B)) at the […] were calculated and used for plotting isobolograms. […] IC50 and IC90 refers to the IC50 and IC90 obtained from the dose-response curve of either cA* or cB alone, or cA* plus cB with the ratio indicated in the table, where the top relative concentration is defined as 1.
# [4] = system: NCI-H1975, NCI-H1650, HCT116, Colo205, MDA-MB-468 cell lines; experiment: caspase 3/7 activation assay, example (cell line not named); type: cell-based
# Procedure: The effects of combinations of the present invention were evaluated using combination index isobologram analysis for in vitro assessment. The efficacy parameters were the effects in a 72-hour cell proliferation assay or in a 48-hour caspase 3/7 activation assay. Briefly, cells were plated in 384-well plate with 25 μL medium. […] Experiments were conducted in triplicates. The mapping EC50/IC50 and EC90/IC90 values were calculated using Analyze5 computer program. The corresponding component concentrations of cA and BB (either cB, or Lapatinib, or paclitaxel (as component B)) at the […] were calculated and used for plotting isobolograms. […] The dose-response curve of either cA* or cB alone, or cA* (as component A) plus cB (as component B) with the ratio indicated in the figure, where the top relative concentrations are defined as 1.
# [5] = system: Co5841 primary human tumor (CRC); experiment: Co5841 primary human xenograft CRC model; type: in vivo, nude mice
# Procedure: as §1
# FIG. 3: Dose-dependent tumor growth inhibition in Co5841 primary human xenograft CRC model. Co5841 primary human tumor was derived from a patient with CRC and was xenografted in nude mice. The tumor was propagated in vivo and tumor tissue from one in vivo passage was used for s.c. implantation in the inguinal region of male nude mice. Treatment was started when the tumors were approximately 0.1 cm^3 in size. Treatment was continued until progression of the tumors. Tumor diameters and body weight were monitored weekly. cA* was dosed at 14 mg/kg, Q2D×7 from day 6 to day 22 (group C, H and I), or 10 mg/kg, BID×1 weekly on day 6, 13, and 20. cB was dosed at either 12.5 mg/kg (group D, F and H), QD, […]
smiles,measurement,setting,value
CC(=O)O[C@H]1C(=O)[C@@]2(C)[C@H]([C@H](OC(=O)c3ccccc3)[C@]3(O)C[C@H](OC(=O)[C@H](O)[C@@H](NC(=O)c4ccccc4)c4ccccc4)C(C)=C1C3(C)C)[C@]1(OC(C)=O)CO[C@@H]1C[C@@H]2O [Paclitaxel],sensitivity of the model,[1],resistant
same,single agent efficacy,[2]; paclitaxel 25 mg/kg (MTD),very efficacious
same,mice with disease progression after stopping the treatment,[2]; paclitaxel 25 mg/kg single agent,60%
"COc1c(OCCCN2CCOCC2)ccc2c1N=C(NC(=O)c1cnc(N)nc1)N1CCN=C21 [cA, 2-amino-N-[7-methoxy-8-(3-morpholin-4-ylpropoxy)-2,3-dihydroimidazo[1,2-c]quinazolin-5-yl]pyrimidine-5-carboxamide]",T/C,"[1]; cA 10 mg/kg BID weekly (day 7, 14, 21, 28)",0.88
same,animals with disease progression,[1],100%
same,body weight loss of weekly dosing compared with Q2D dosing,"[1]; mouse, in vivo",less body weight loss
same,IC90,[3],> 5 µM
same,"induction of apoptosis (caspase 3/7), single agent",[4]; 5 μM,Neither 10 μM of cB nor 5 μM of cA as single agents could induce apoptosis
same,T/C,"[5]; cA 10 mg/kg BID weekly (day 6, 13, 20)",0.49
same,animals with disease progression (DP),[5]; cA 10 mg/kg BID weekly monotherapy,90%
same,animals with disease progression (DP),[5]; cA 14 mg/kg Q2D monotherapy,100%
same,T/C,"[5]; cA 14 mg/kg Q2D, day 6 to 22",0.39
"COc1cc(F)c(F)c(Nc2ccc(I)cc2F)c1NS(=O)(=O)C1(C[C@H](O)CO)CC1 [cB, (S)—N-(3,4-difluoro-2-(2-fluoro-4-iodophenylamino)-6-methoxyphenyl)-1-(2,3-dihydroxypropyl)cyclopropane-1-sulfonamide]",T/C,"[1]; cB 12.5 mg/kg daily, day 7 to 35",0.46
same,T/C,"[1]; cB 25 mg/kg daily, day 7 to 35",0.31
same,animals with disease progression,[1],100%
same,IC90,[3],> 5 µM
same,"induction of apoptosis (caspase 3/7), single agent",[4]; 10 μM,Neither 10 μM of cB nor 5 μM of cA as single agents could induce apoptosis
same,T/C,"[5]; cB 12.5 mg/kg daily, day 6 to 23",0.35
same,animals with disease progression (DP),[5]; cB 25 mg/kg monotherapy,70%
"C#Cc1cccc(Nc2ncnc3cc(OCCOC)c(OCCOC)cc23)c1 [erlotinib, reference compound]",sensitivity of the model,[1],resistant
"COc1cc([C@@H]2c3cc4c(cc3[C@@H](O[C@@H]3O[C@@H]5CO[C@@H](C)O[C@H]5[C@H](O)[C@H]3O)[C@H]3COC(=O)[C@H]23)OCO4)cc(OC)c1O [etoposid, reference compound]",sensitivity of the model,[1],resistant
